PubChem BioAssay (NCI)
“And” between values parts separate entries of the source, which are not always exact repeats. Identical values can stand only once.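 A five-concentration, 48-hour dose response in 96-well plates underlies each endpoint, interpolated linearly between surrounding concentrations. Abbreviation: GI50, concentration required for 50% inhibition of growth. The concentration for full growth arrest is given as TGI.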

Legend:
Assay in all cases: inhibition of tumour cell growth, NCI panel, 48 h
K-562 leukemia = system: K-562 leukemia
M14 melanoma = system: M14 melanoma
MALME-3M melanoma = system: MALME-3M melanoma
NCI-H226 lung = system: NCI-H226 lung
NCI-H23 lung = system: NCI-H23 lung
NCI-H522 lung = system: NCI-H522 lung
SF-268 CNS = system: SF-268 CNS
SK-MEL-5 melanoma = system: SK-MEL-5 melanoma
SK-OV-3 ovarian = system: SK-OV-3 ovarian
SR leukemia = system: SR leukemia

Structure (SMILES)	GI50 (K-562 leukemia)	TGI (K-562 leukemia)	GI50 (M14 melanoma)	TGI (M14 melanoma)	GI50 (MALME-3M melanoma)	TGI (MALME-3M melanoma)	GI50 (NCI-H226 lung)	TGI (NCI-H226 lung)	GI50 (NCI-H23 lung) [µM]	TGI (NCI-H23 lung)	GI50 (NCI-H522 lung)	TGI (NCI-H522 lung)	GI50 (SF-268 CNS)	TGI (SF-268 CNS)	GI50 (SK-MEL-5 melanoma)	TGI (SK-MEL-5 melanoma)	GI50 (SK-OV-3 ovarian)	TGI (SK-OV-3 ovarian)	GI50 (SR leukemia)	TGI (SR leukemia)
CCN1CCN(CCNc2nccc(-c3c(-c4cccc(O)c4)nc4sccn34)n2)S1(=O)=O	11.9 µM and 11.4 µM	32.5 µM and > 100 µM	0.168 µM and 0.142 µM	19.8 µM and 10.8 µM	0.0775 µM and 0.118 µM	0.42 µM and 0.785 µM	> 32.5 µM and 26.4 µM	> 32.5 µM and 84.3 µM	12.4	32.5 µM and 51.9 µM	7.65 µM and 4.27 µM	29.8 µM and 31.2 µM	23.4 µM and 19.9 µM	32.5 µM and > 100 µM	5.28 µM and 6.28 µM	23.1 µM and 20.7 µM	7.93 µM and 3.95 µM	32.5 µM and 22.8 µM	7.65 µM and 5.96 µM	32.5 µM and 64.3 µM
Clc1cccc(Cn2cc(Cc3cn(Cc4cccc(Cl)c4)c4ccccc34)c3ccccc32)c1	> 100 µM	> 100 µM	> 100 µM	> 100 µM	> 100 µM	> 100 µM	10.1 µM	59 µM	> 100	> 100 µM	45.5 µM	> 100 µM	> 100 µM	> 100 µM	> 100 µM	> 100 µM	> 100 µM	> 100 µM	> 100 µM	> 100 µM
O=C(/C=C/c1ccccc1O)c1ccccc1	2.51 µM	14.1 µM	8.23 µM	21.4 µM	5.5 µM	20.4 µM	12.8 µM	26.1 µM	9.63	23.2 µM	9.1 µM	22 µM	6.34 µM	21.2 µM	11.5 µM	23.9 µM	31.5 µM	> 100 µM	1.83 µM	5.8 µM
NC(Cc1cc(Br)c(O)c(Br)c1)C(=O)O (stereo not given)		> 100 µM		> 100 µM		> 100 µM		> 100 µM		> 100 µM		> 100 µM		> 100 µM		> 100 µM		> 100 µM		> 100 µM
CNC(=O)c1cc(Oc2ccc3nc(NC(=O)c4cc(C(F)(F)F)cc(C(F)(F)F)c4)sc3c2)ccn1	3.53 µM	> 100 µM	3.61 µM	19.4 µM	2.03 µM	6.65 µM	4.15 µM	17.4 µM	3.37	17.7 µM	2.82 µM	8.77 µM	2.66 µM	17 µM	1.68 µM	3.63 µM	2.52 µM	7.98 µM	3.37 µM	15 µM
O=Cc1ncc(-c2ccc(C(F)(F)F)cc2)c(NC2CCCCCC2)n1	> 10 µM	> 10 µM	> 10 µM	> 10 µM	> 10 µM	> 10 µM	> 10 µM	> 10 µM	> 10	> 10 µM	> 10 µM	> 10 µM	> 10 µM	> 10 µM	> 10 µM	> 10 µM	> 10 µM	> 10 µM	5.7 µM	> 10 µM
CCCCCCCCC(=O)CCCCCCCCC(=O)O		46.6 µM		82.8 µM		> 100 µM		63.6 µM		85.8 µM		85 µM		> 100 µM		29.1 µM		> 100 µM		42.5 µM
COC(=O)C1=C(C(=O)Nc2cccnc2)C2OC1(C(Cc1ccccc1)Oc1ccccc1)C1OC21 (stereo not given)	2.03 µM	6.68 µM	2.62 µM	7.45 µM	1.6 µM	3.31 µM	1.92 µM	4.12 µM	12.3	29.1 µM	1.37 µM	2.95 µM	13 µM	27.9 µM	15.6 µM	31.3 µM	18.3 µM	48.2 µM	0.918 µM	5.13 µM
CC12Oc3ccc4ccccc4c3C1c1c(ccc3ccccc13)O2 (stereo not given)		> 100 µM		> 100 µM		> 100 µM		> 100 µM		> 100 µM		> 100 µM		> 100 µM		> 100 µM		> 100 µM		> 100 µM
CCOc1ccc(/C=N/Nc2cc(C)nc3ccc(Cl)cc23)cc1	1.36 µM	2.98 µM	1.53 µM	2.91 µM	2.02 µM	3.6 µM	1.85 µM	3.62 µM	1.76	3.32 µM	1.73 µM	3.29 µM	2.05 µM	3.9 µM	1.72 µM	3.09 µM	2.86 µM	7.29 µM	1.12 µM	3.5 µM
Nc1nn(C(=O)Nc2ccc(Cc3ccccc3)cc2)c2ccc(Cl)cc12	0.0343 µM	16.9 µM	0.0666 µM	11.7 µM	12 µM	> 74 µM	13.5 µM	> 81.7 µM	5.72	> 82.7 µM	7.96 µM	> 100 µM	13.2 µM	52.3 µM	0.33 µM	25.8 µM	17.9 µM	52 µM	12.6 µM	26.5 µM
COC(=O)C1C2CC3C(OC(=O)C31)C2I (stereo not given)		> 100 µM		> 100 µM		> 100 µM		> 100 µM		> 100 µM		> 100 µM		> 100 µM		> 100 µM		> 100 µM		> 100 µM
O=C(c1ccc(F)c(F)c1Nc1ccc(I)cc1F)N1CC(O)([C@H]2CCCCN2)C1	3.53 µM	13.5 µM	0.087 µM	2.52 µM	0.019 µM	0.0976 µM	4.8 µM	22.8 µM	1.09	13.1 µM	8.01 µM	22.9 µM	9.83 µM	23.4 µM	0.668 µM	6.06 µM	8.15 µM	21.1 µM	3.94 µM	17.8 µM
C[C@H]1O[C@@H](O[C@H]2[C@@H](O)C[C@H](O[C@H]3[C@@H](O)C[C@H](O[C@H]4CC[C@]5(C)C6C[C@@H](O)[C@]7(C)[C@@H](C8=CC(=O)OC8)CC[C@]7(O)C6CC[C@@H]5C4)O[C@@H]3C)O[C@@H]2C)C[C@H](O)[C@@H]1O (stereo not given in full)	0.117 µM	0.413 µM	0.107 µM	0.241 µM	0.115 µM	0.262 µM	0.102 µM	0.191 µM	0.0251	0.112 µM	0.015 µM	0.0695 µM	0.0253 µM	0.083 µM	0.0478 µM	0.122 µM	0.0821 µM	0.164 µM	0.0552 µM	0.307 µM
